The record followed here is article PMC7910904, “Improving the Antioxidant Properties of Calophyllum inophyllum Seed Oil from French Polynesia: Development and Biological Applications of Resinous Ethanol-Soluble Extracts” (Antioxidants, 2021).

The term inhibition denotes the change of the read-out against control, counted positive when it falls. By IC50 is commonly meant the point on the concentration scale where inhibition reaches its midpoint.

In one test the target is T1, proteinase K (PTA) (Parengyodontium album, UniProt P06873).
T1 construct: purchased Sigma-Aldrich
Description: Proteinase inhibitory activity. The format is biochemical. To be noted: compounds at 150 µg/mL. The method, then:
Anti-inflammatory properties of the extracts were evaluated by their proteinase and lipoxygenase inhibitory activities as described. Briefly, PTA (0.06 mg) was dissolved in 2 mL of Tris HCl buffer (20 mM, pH 7.4) containing a suspension of each extract (100–600 µg/mL). The mixture was incubated at 37 °C for 5 min, and 1 mL of 4% BSA was added. Incubation was prolonged for 20 min, and afterwards 2 mL of 5% trichloroacetic acid was added to the mixture. After centrifugation (3000 rpm, 10 min, 4 °C) the absorbance was read at 210 nm against buffer as blank, and the percentage of proteinase inhibition activity was calculated. Experiments were performed in triplicate and averaged. The anti-inflammatory drug diclofenac (100–300 µg/mL) was used as a standard for comparison.

Test [1] in a line: Metal chelating capacity (ferrozine). The settings on record: EDTA equivalents per gram of extract.
In test [2] the target is T2, xanthine oxidase (XO; from buttermilk) (Bos taurus, UniProt P80457).
T2 construct: purchased Sigma-Aldrich; host or cells: buttermilk (natural source)
The experiment in a line: biochemical. The settings on record: 30 min, 37 °C; read-out: XO Inhibition IC50 (converted). The method, then: All reactants were dissolved in PBS (0.2 M, pH 7.5). The experiments were performed at 37 °C in 96-wells microplates with a final volume of 250 µL/well [30]. […] To all wells, 25 µL of EDTA (0.1 mM in PBS) and 25 µL of xanthine solution (500 µM) were then added, and the reaction was started by adding 50 µL of XO suspension (23.32 mU/mL), while PBS (50 µL) was added in blank samples. The final concentrations were: xanthine, 50 µM; EDTA, 10 µM and XO, 4.7 mU/mL. The wells were incubated for 30 min at 37 °C, and uric acid production was determined by subtracting the absorbance at 290–295 nm of the sample against that of the blank. Each measurement was performed in triplicate.

A short description of test [3]: Superoxide radical quenching (allopurinol-XO generator, lucigenin luminescence). To be noted: glycine buffer/acetone. The method, then: All reactants were dissolved in glycine buffer, and the reaction was carried out at 25 °C [30]. […] The test tube was inserted in the luminometer, and reaction was initiated by adding a XO suspension (2 µL, 11 mU/mL). Luminescence was monitored for a total period of 7 min and O2^•− quenching was calculated by subtracting areas under the curve against blank. Each measurement was performed in triplicate.

The target in test [4] is T3, Lipoxygenase (15-LOX, soybean) (Glycine max, UniProt P08170).
T3 sequence (P08170 1-839): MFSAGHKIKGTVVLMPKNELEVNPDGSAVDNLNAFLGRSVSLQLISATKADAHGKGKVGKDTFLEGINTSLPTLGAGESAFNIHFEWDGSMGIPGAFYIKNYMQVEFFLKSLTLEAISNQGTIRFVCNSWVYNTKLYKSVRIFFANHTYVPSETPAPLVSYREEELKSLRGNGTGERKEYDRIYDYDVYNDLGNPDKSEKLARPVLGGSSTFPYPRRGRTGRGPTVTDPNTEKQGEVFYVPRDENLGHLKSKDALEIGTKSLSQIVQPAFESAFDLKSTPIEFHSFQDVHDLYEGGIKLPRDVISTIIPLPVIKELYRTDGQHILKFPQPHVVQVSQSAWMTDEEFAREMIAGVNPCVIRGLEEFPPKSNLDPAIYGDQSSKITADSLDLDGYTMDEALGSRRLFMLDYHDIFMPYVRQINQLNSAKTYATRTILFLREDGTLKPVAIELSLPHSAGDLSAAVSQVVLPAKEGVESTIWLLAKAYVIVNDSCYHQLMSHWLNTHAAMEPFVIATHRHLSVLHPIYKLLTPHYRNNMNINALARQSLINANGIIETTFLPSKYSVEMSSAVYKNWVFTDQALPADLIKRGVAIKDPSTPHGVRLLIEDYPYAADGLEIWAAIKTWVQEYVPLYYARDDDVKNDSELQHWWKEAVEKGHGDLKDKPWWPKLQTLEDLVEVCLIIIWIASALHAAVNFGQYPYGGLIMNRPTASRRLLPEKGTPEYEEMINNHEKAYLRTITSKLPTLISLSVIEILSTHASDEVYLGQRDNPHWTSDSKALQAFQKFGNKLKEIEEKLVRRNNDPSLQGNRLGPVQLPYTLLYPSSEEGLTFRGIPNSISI
Description: Lipoxygenase inhibitory activity (Cayman kit). The class given is biochemical. To be noted: compounds at 100 µg/mL. The method, then:
Lipoxygenase (15-LOX, soybean) inhibitory activity was evaluated using a commercial assay kit (Cayman Chemicals Co; Item No. 760700) according to the manufacturer’s instructions. Solutions of test samples (10 μL) in methanol were added into 96-wells plates together with assay buffer, and the enzyme was added. The reaction was initiated by adding 10 μL of arachidonic acid to the wells and the plate was placed on a shaker for 15 min. Chromogen solution (100 μL) was added to the wells, the plate was then placed on a shaker for 10 min and absorbance was read at 495–500 nm. […] Results are expressed as a percentage relative to the activity without the test compound.

Another test can be described thus: DPPH assay. The settings on record: metabolites and standards, in dichloromethane. The method, then: Experiments were performed according to previous procedures. Aliquots of dichloromethane solutions of oil or fractions (50–500 mg/mL) or test compounds (final concentration 0.01–2 mM) were added to 200 µL of a freshly prepared DPPH solution (75 mg/L), and the final volume was adjusted to 300 µL with dichloromethane to obtain a final DPPH concentration of 0.13 mM. The absorbance was read at 517 nm on a microplate reader 3 min after sample addition. Experiments were performed in triplicate and averaged. The DPPH inhibition was calculated as follows:Inhibition (%) = [100 × (A0 − A)/A0](1)
A general note: The DPPH test is a chemical assay of radical scavenging.

Test [5] in a line: Total peroxyl radical-trapping potential (TRAP) assay. To be noted: metabolites and standards: activity of a 1 µM-solution relative to 1 µM Trolox. The method, then: The experimental protocol of the TRAP assay was previously reported. Briefly, AAPH (150 mM) was dissolved in 10 mL of Tris HCl buffer solution (100 mM, pH 7.4), and the solution was kept at 37 °C for 30 min to initiate thermal radical formation. A luminol stock solution (1 mM) was prepared in 50 mL Tris HCl buffer and kept in darkness at 4 °C. A 78 µM, working luminol solution was prepared before each assay by dilution in Tris HCl buffer. Samples for assays were prepared as follows: 2 mL of AAPH (final concentration, 100 mM) and 500 μL of luminol solution (final concentration, 13 µM) were introduced in a 3 mL tube; then, 500 μL of pure acetone (blank) or solution of the tested oil or extract in acetone (0.005–0.2 mg/mL) or DMSO (test compounds: 5–300 µM) were added and the mixture vortexed for 5 s before luminescence analysis. A calibration curve was obtained in the same conditions using the antioxidant Trolox (1–40 μM) as a standard.
Quantification of radical scavenging capacity was performed by integrating the area under the curve (AUC) for the sample and blank solutions, and the results are expressed as Trolox Equivalents (TE) using Equation (2):TE = ([Trolox] × ΔAUC Sample)/([Sample] × ΔAUC Trolox)(2) where ΔAUC Sample (Trolox) = AUC Blank − AUC Sample (Trolox).

T2 sequence (P80457 whole entry): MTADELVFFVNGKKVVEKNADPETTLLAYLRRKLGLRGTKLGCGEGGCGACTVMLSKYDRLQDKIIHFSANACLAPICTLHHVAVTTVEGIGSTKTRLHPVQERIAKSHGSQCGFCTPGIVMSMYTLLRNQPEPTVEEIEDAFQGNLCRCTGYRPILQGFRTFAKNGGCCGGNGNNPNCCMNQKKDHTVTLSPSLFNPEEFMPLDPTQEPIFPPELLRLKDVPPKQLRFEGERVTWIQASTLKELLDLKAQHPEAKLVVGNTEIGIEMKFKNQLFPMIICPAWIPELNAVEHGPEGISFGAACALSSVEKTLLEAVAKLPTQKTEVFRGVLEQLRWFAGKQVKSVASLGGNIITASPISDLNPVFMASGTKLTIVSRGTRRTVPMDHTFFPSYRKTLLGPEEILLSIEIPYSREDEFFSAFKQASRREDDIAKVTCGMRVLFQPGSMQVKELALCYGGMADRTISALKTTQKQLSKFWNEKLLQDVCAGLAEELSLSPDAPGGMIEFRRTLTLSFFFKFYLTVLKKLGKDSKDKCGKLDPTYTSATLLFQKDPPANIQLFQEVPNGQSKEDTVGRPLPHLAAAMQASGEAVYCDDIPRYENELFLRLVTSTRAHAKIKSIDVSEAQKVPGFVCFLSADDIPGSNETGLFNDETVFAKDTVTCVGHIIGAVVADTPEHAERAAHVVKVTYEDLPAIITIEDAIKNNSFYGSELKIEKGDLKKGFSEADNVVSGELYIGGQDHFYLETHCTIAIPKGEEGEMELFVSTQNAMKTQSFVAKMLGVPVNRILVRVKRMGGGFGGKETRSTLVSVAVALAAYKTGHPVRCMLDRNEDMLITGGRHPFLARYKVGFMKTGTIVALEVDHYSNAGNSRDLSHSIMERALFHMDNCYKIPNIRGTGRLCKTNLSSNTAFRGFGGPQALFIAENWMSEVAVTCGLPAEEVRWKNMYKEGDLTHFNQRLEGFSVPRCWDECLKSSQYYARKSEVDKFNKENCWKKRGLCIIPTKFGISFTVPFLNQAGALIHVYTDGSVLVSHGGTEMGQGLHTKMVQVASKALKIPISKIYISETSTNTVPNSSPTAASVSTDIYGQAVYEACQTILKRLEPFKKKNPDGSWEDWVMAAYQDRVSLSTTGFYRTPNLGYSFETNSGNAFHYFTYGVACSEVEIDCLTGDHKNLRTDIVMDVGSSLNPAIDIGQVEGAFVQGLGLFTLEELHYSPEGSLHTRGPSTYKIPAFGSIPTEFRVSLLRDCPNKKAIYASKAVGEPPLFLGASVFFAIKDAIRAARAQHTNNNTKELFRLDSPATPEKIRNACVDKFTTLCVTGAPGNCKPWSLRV
T1 sequence (P06873 106-384): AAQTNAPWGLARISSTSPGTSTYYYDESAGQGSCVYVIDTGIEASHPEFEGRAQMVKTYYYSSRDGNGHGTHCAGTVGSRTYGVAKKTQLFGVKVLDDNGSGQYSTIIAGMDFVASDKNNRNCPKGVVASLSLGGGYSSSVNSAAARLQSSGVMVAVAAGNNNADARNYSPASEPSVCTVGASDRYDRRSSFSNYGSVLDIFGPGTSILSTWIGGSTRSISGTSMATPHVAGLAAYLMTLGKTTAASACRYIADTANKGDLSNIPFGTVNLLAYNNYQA

With `O=C(O)Cc1ccccc1Nc1c(Cl)cccc1Cl` [Diclofenac], testing at 150 µg/mL against proteinase K (PTA) gave an inhibition of 64 ± 2%.
For the compound `O=C(O)c1cc(O)c(O)c(O)c1` [Gallic acid], the MCC in test [1] turned out to be 90 ± 3 µmol EDTAE/g. In addition, the half-inhibitory concentration (IC50) in test [2] is 242 µM. In addition, in test [3], the “O2•− Quenching IC50” value is reported as 0.022 ± 0.01 µg/mL. Also, 100 µg/mL produced 28 ± 2% inhibition in test [4].
For the compound `O=C(O)/C=C/c1ccc(O)c(O)c1` [Caffeic acid], the MCC in test [1] is on record as 125± 5 µmol EDTAE/g. Further, the concentration for half-maximal inhibition (IC50) in test [2] is 219 µM; in “DPPH assay” it was 18.1 ± 0.21 µM. The “O2•− Quenching IC50” value in test [3] is reported as 0.013 ± 0.06 µg/mL. In test [4], this compound yielded an inhibition at 100 µg/mL of 45 ± 1%. The “TRAP TE” value in test [5] amounted to 2.98 ± 0.14 TE.
